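Briefly, cells in 96-well plates were exposed to five compound concentrations for 48 h, and endpoints were estimated by linear interpolation. The concentration for 50% growth inhibition is given as GI50. The concentration for full growth arrest is given as TGI.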
Legend:
Experiment in all cases: NCI-60 cell line screen, 48 h
A549 NSCLC = test system: A549 NSCLC
SNB-19 CNS = test system: SNB-19 CNS
HCC-2998 colon = test system: HCC-2998 colon
NCI/ADR-RES ovarian = test system: NCI/ADR-RES ovarian
UACC-257 melanoma = test system: UACC-257 melanoma
HS 578T breast = test system: HS 578T breast
M14 melanoma = test system: M14 melanoma
HOP-62 NSCLC = test system: HOP-62 NSCLC
HL-60(TB) leukemia = test system: HL-60(TB) leukemia
OVCAR-4 ovarian = test system: OVCAR-4 ovarian
DU-145 prostate = test system: DU-145 prostate
T-47D breast = test system: T-47D breast
UACC-62 melanoma = test system: UACC-62 melanoma
HCT-116 colon = test system: HCT-116 colon
SF-295 CNS = test system: SF-295 CNS
SF-268 CNS = test system: SF-268 CNS
ACHN renal = test system: ACHN renal
SR leukemia = test system: SR leukemia
HT29 colon = test system: HT29 colon
MDA-MB-231 breast = test system: MDA-MB-231 breast
MCF7 breast = test system: MCF7 breast
U251 CNS = test system: U251 CNS
RXF 393 renal = test system: RXF 393 renal
786-0 renal = test system: 786-0 renal
SN12C renal = test system: SN12C renal
OVCAR-5 ovarian = test system: OVCAR-5 ovarian
NCI-H23 lung = test system: NCI-H23 lung
SK-MEL-2 melanoma = test system: SK-MEL-2 melanoma
OVCAR-8 ovarian = test system: OVCAR-8 ovarian
SK-OV-3 ovarian = test system: SK-OV-3 ovarian
MOLT-4 leukemia = test system: MOLT-4 leukemia
SK-MEL-5 melanoma = test system: SK-MEL-5 melanoma
SW-620 colon = test system: SW-620 colon
TK-10 renal = test system: TK-10 renal
EKVX NSCLC = test system: EKVX NSCLC
HCT-15 colon = test system: HCT-15 colon
NCI-H226 lung = test system: NCI-H226 lung
LOX IMVI melanoma = test system: LOX IMVI melanoma
COLO 205 colon = test system: COLO 205 colon
RPMI-8226 leukemia = test system: RPMI-8226 leukemia
SK-MEL-28 melanoma = test system: SK-MEL-28 melanoma
MDA-MB-435 = test system: MDA-MB-435
CCRF-CEM leukemia = test system: CCRF-CEM leukemia
SF-539 CNS = test system: SF-539 CNS
NCI-H522 lung = test system: NCI-H522 lung
IGROV1 ovarian = test system: IGROV1 ovarian
OVCAR-3 ovarian = test system: OVCAR-3 ovarian
CAKI-1 renal = test system: CAKI-1 renal
BT-549 breast = test system: BT-549 breast
MALME-3M melanoma = test system: MALME-3M melanoma
UO-31 renal = test system: UO-31 renal
SNB-75 CNS = test system: SNB-75 CNS
NCI-H460 lung = test system: NCI-H460 lung
HOP-92 NSCLC = test system: HOP-92 NSCLC
KM12 colon = test system: KM12 colon

For `CN(C)c1ccc(/C=N/NC(=O)CSc2nc3sc4c(c3c(=O)n2-c2ccccc2)CCCCC4)cc1`, the GI50 (A549 NSCLC) was 4.25 µM, the TGI (A549 NSCLC) was > 100 µM and the GI50 (SNB-19 CNS) was 6.66 µM. For the same compound, the TGI (SNB-19 CNS) was 80.9 µM, the GI50 (HCC-2998 colon) was 7.5 µM and the TGI (HCC-2998 colon) was > 100 µM. The GI50 (NCI/ADR-RES ovarian) was 7.85 µM, the TGI (NCI/ADR-RES ovarian) was > 100 µM and the GI50 (UACC-257 melanoma) was > 100 µM. For the same compound, the TGI (UACC-257 melanoma) was > 100 µM, the GI50 (HS 578T breast) was 3.85 µM and the TGI (HS 578T breast) was 40.5 µM. The GI50 (M14 melanoma) was 8.26 µM, the TGI (M14 melanoma) was > 100 µM and the GI50 (HOP-62 NSCLC) was 3.21 µM. The TGI (HOP-62 NSCLC) was 20.2 µM, the GI50 (HL-60(TB) leukemia) was > 100 µM and the TGI (HL-60(TB) leukemia) was > 100 µM. It also gave a GI50 (OVCAR-4 ovarian) of 2.56 µM, a TGI (OVCAR-4 ovarian) of 6.49 µM and a GI50 (DU-145 prostate) of 3.41 µM. For the same compound, the TGI (DU-145 prostate) was > 100 µM, the GI50 (T-47D breast) was > 100 µM and the TGI (T-47D breast) was > 100 µM. For the same compound, the GI50 (UACC-62 melanoma) was 4.04 µM, the TGI (UACC-62 melanoma) was > 100 µM and the GI50 (HCT-116 colon) was 3.96 µM. The TGI (HCT-116 colon) was > 100 µM, the GI50 (SF-295 CNS) was 3.39 µM and the TGI (SF-295 CNS) was 20.7 µM. The GI50 (SF-268 CNS) was 11.5 µM, the TGI (SF-268 CNS) was > 100 µM and the GI50 (ACHN renal) was 5.59 µM. For the same compound, the TGI (ACHN renal) was > 100 µM, the GI50 (SR leukemia) was 3 µM and the TGI (SR leukemia) was > 100 µM. The GI50 (HT29 colon) was 4.31 µM, the TGI (HT29 colon) was > 100 µM and the GI50 (MDA-MB-231 breast) was 2.89 µM. For the same compound, the TGI (MDA-MB-231 breast) was 18 µM, the GI50 (MCF7 breast) was 4.7 µM and the TGI (MCF7 breast) was > 100 µM. For the same compound, the GI50 (U251 CNS) was 3.2 µM, the TGI (U251 CNS) was 17.1 µM and the GI50 (RXF 393 renal) was 3.43 µM. It also gave a TGI (RXF 393 renal) of 15.2 µM, a GI50 (786-0 renal) of 8.26 µM and a TGI (786-0 renal) of 39.1 µM. For the same compound, the GI50 (SN12C renal) was 4.59 µM, the TGI (SN12C renal) was > 100 µM and the GI50 (OVCAR-5 ovarian) was 6.55 µM. For the same compound, the TGI (OVCAR-5 ovarian) was > 100 µM, the GI50 (NCI-H23 lung) was 3.79 µM and the TGI (NCI-H23 lung) was > 100 µM. The GI50 (SK-MEL-2 melanoma) was 15.5 µM, the TGI (SK-MEL-2 melanoma) was 59.3 µM and the GI50 (OVCAR-8 ovarian) was 4.83 µM. For the same compound, the TGI (OVCAR-8 ovarian) was > 100 µM, the GI50 (SK-OV-3 ovarian) was 11.3 µM and the TGI (SK-OV-3 ovarian) was 51 µM. For the same compound, the GI50 (MOLT-4 leukemia) was > 100 µM, the TGI (MOLT-4 leukemia) was > 100 µM and the GI50 (SK-MEL-5 melanoma) was 3.44 µM. For the same compound, the TGI (SK-MEL-5 melanoma) was > 100 µM, the GI50 (SW-620 colon) was 3.56 µM and the TGI (SW-620 colon) was > 100 µM. The GI50 (TK-10 renal) was 4.16 µM, the TGI (TK-10 renal) was > 100 µM and the GI50 (EKVX NSCLC) was 7.08 µM. The TGI (EKVX NSCLC) was > 100 µM, the GI50 (HCT-15 colon) was 3.96 µM and the TGI (HCT-15 colon) was > 100 µM. The GI50 (NCI-H226 lung) was 4.26 µM, the TGI (NCI-H226 lung) was > 100 µM and the GI50 (LOX IMVI melanoma) was 3.05 µM. For the same compound, the TGI (LOX IMVI melanoma) was > 100 µM, the GI50 (COLO 205 colon) was 4.14 µM and the TGI (COLO 205 colon) was > 100 µM. For the same compound, the GI50 (RPMI-8226 leukemia) was > 100 µM, the TGI (RPMI-8226 leukemia) was > 100 µM and the GI50 (SK-MEL-28 melanoma) was 4.42 µM. For the same compound, the TGI (SK-MEL-28 melanoma) was > 100 µM, the GI50 (MDA-MB-435) was 5.07 µM and the TGI (MDA-MB-435) was > 100 µM. For the same compound, the GI50 (CCRF-CEM leukemia) was 5.82 µM, the TGI (CCRF-CEM leukemia) was > 100 µM and the GI50 (SF-539 CNS) was 4.52 µM. For the same compound, the TGI (SF-539 CNS) was 25.5 µM, the GI50 (NCI-H522 lung) was 3.89 µM and the TGI (NCI-H522 lung) was > 100 µM. The GI50 (IGROV1 ovarian) was 3.08 µM, the TGI (IGROV1 ovarian) was > 100 µM and the GI50 (OVCAR-3 ovarian) was 3.62 µM. The TGI (OVCAR-3 ovarian) was > 100 µM, the GI50 (CAKI-1 renal) was 5.07 µM and the TGI (CAKI-1 renal) was > 100 µM. The GI50 (BT-549 breast) was 16.1 µM, the TGI (BT-549 breast) was > 100 µM and the GI50 (MALME-3M melanoma) was 3.45 µM. For the same compound, the TGI (MALME-3M melanoma) was > 100 µM, the GI50 (UO-31 renal) was > 100 µM and the TGI (UO-31 renal) was > 100 µM. The GI50 (SNB-75 CNS) was 2.68 µM, the TGI (SNB-75 CNS) was 14.6 µM and the GI50 (NCI-H460 lung) was 2.21 µM. The TGI (NCI-H460 lung) was 4.86 µM, the GI50 (HOP-92 NSCLC) was 3.55 µM and the TGI (HOP-92 NSCLC) was 29 µM. For the same compound, the GI50 (KM12 colon) was > 100 µM and the TGI (KM12 colon) was > 100 µM.

Reference: PubChem BioAssay (NCI)
